From ChEMBL document CHEMBL4842393, “Targeting KRAS G12D Mutant for the Potential Treatment of Pancreatic Cancer” (ACS Med Chem Lett, 2021)

Target: GTPase KRas (Homo sapiens, UniProt P01116, G12D)
Experiment: Displacement of Cy5-labelled tracer from biotinylated GDP-loaded human recombinant KRAS G12D mutant (1 to 169 residues) measured after 60 mins by TR-FRET assay

Oc1cc(-c2ncc3c(N4CC5CCC(C4)N5)nc(OCC45CCCN4C(CF)CC5)nc3c2F)c2ccccc2c1 (stereo unspecified)
IC50: 0.1 nM
